Assays:
[1] = Test of in vitro efficacy: in vitro sun protection factor (Diffey method) of O/W emulsions; conditions: screening agent 5% in O/W support, mean of three SPF values
From the text: Test of In Vitro Efficacy:
The method for evaluating the protection factor used is the in vitro method described by B. L. Diffey et al. in J. Soc. Cosmet. Chem. 40-127-133 (1989), which consists in determining the monochromatic protection factors every 5 nm in a wavelength range from 290 to 400 nm, and in calculating therefrom the sun protection factor according to a given mathematical equation.
Two screening agents of triazine type were formulated in a support of O/W type, at 5% by weight, in the solvent according to the invention and in a comparative solvent (Finsolv TN), and three SPF values, the mean and the standard deviation of which are collated in the table below, were determined for each formulation: […]

[2] = Comparative study of the solubility of a triazine derivative in different solvents; format: physicochemical; conditions: heated to 83° C., crystals observed after 24 hours and cooling to room temperature
Description: Comparative Study of the Solubility of a Triazine Derivative in Different Solvents The solubility of a triazine derivative (i.e., 2,4,6-tris(diisobutyl 4′-aminobenzalmalonate)-s-triazine) in different solvents was determined by means of the following test:
20 g of solvent are added, at room temperature, to 5 g of screening agent, the mixture thus obtained is brought to 83° C. using a water bath, the presence or absence of crystals is observed after 24 hours and cooling to room temperature.
The results obtained are collated in the table below (the chemical names are given in the CTFA nomenclature, 5th edition, 1993).

[3] = solvent 15% C12-C15 alkyl benzoate "Finsolv TN" (comparative)
[4] = solvent 15% n-butylphthalimide/isopropylphthalimide Pelemol BIP (invention)

Row | Compound | Mean SPF (Standard Deviation) [1, 3] | Mean SPF (Standard Deviation) [1, 4] | SOLUBILITY OF THE TRIAZINE SCREENING AGENT ([2]; solvent: C8-C12 fatty acid triglycerides "Miglyol 812") [%] | SOLUBILITY OF THE TRIAZINE SCREENING AGENT ([2]; solvent: C12-C15 alkyl benzoate "Finsolv TN") [%] | SOLUBILITY OF THE TRIAZINE SCREENING AGENT ([2]; solvent: PPG-3 myristyl ether "Witconol APM") [%] | SOLUBILITY OF THE TRIAZINE SCREENING AGENT ([2]; solvent: n-butylphthalimide/isopropylphthalimide eutectic mixture Pelemol BIP (invention)) [%]
1 | CC(C)COC(=O)C(=Cc1ccc(Nc2nc(Nc3ccc(C=C(C(=O)OCC(C)C)C(=O)OCC(C)C)cc3)nc(Nc3ccc(C=C(C(=O)OCC(C)C)C(=O)OCC(C)C)cc3)n2)cc1)C(=O)OCC(C)C [2,4,6-tris(diisobutyl 4′-aminobenzalmalonate)-s-triazine] | 4.1 | 8.0 | <10 | <10 | <10 | 40
2 | CCCCC(CC)COc1ccc(-c2nc(-c3ccc(OC)cc3)nc(-c3ccc(OCC(CC)CCCC)cc3O)n2)c(O)c1 (centres unmarked) [Anisotriazine] | 8.5 | 11.4 |  |  |  | 
